Values joined by “and” are separate entries in the source; they are usually repeats but may differ in a detail not shown here. Equal entries are not always repeated. Active and inactive are the calls of the source.
Tests used:
[1] = biological target: T1, Apoptotic protease-activating factor 1 (Homo sapiens, UniProt O14727); experiment: activation of Apaf-1 mediated apoptosis – fluorescent, uHTS hits, dose response (AID 588554); format: functional
T1 sequence (O14727 whole entry): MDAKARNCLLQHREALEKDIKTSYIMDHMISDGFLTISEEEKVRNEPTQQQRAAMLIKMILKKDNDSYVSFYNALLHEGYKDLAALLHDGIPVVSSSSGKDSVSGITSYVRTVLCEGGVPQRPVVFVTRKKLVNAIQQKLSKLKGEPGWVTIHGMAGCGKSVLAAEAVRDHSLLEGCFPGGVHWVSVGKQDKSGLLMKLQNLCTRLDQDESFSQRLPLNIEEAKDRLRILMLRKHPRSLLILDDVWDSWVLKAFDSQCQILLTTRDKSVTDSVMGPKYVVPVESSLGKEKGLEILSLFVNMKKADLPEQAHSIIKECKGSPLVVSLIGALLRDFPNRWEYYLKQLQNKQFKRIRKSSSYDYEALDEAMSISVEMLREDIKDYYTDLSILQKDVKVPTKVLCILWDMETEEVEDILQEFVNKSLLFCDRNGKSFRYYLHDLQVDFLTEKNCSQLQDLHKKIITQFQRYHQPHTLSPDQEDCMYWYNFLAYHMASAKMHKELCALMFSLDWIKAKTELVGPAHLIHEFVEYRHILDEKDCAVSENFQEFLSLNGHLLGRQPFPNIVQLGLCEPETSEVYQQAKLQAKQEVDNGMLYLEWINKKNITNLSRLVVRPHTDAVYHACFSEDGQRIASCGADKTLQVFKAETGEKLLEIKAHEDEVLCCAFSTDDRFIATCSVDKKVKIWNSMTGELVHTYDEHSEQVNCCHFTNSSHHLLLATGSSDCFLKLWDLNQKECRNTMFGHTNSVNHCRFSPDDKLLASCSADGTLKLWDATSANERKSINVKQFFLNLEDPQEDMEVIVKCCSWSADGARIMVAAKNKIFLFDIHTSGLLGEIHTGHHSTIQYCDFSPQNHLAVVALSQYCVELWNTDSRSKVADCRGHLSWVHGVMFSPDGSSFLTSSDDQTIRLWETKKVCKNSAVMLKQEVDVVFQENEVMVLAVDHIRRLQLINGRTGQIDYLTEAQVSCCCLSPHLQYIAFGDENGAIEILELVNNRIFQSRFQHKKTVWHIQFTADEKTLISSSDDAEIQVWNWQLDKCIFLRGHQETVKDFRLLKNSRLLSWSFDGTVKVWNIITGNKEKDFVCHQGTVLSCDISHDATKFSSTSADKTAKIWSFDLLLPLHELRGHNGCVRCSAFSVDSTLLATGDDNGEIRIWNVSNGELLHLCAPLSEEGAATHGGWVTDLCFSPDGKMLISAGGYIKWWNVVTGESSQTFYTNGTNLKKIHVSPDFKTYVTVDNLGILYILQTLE

[2] = biological target: T2, Voltage-gated N-type calcium channel alpha-1B subunit/Amyloid beta A4 precursor protein-binding family A member 1 (Homo sapiens, UniProt Q00975+Q02410); format: protein assay
[3] = biological target: T2, Voltage-gated N-type calcium channel alpha-1B subunit/Amyloid beta A4 precursor protein-binding family A member 1; format: protein assay; remark: listed apart in the source
[4] = biological target: T3, Small ubiquitin-related modifier 1 (Homo sapiens, UniProt P63165); experiment: inhibitors of SUMO1 partner interactions, dose response, biochemical, FRET (AID 624383); format: functional; settings: read-out: IC50_Mean
[5] = biological target: T3, Small ubiquitin-related modifier 1; experiment: inhibitors of SUMO1 peptide binding, dose response, biochemical, fluorescence polarization, uHTS hits (AID 624382); format: functional; settings: read-out: IC50_Mean
[6] = biological target: Keap1/Nrf2 (Homo sapiens, UniProt Q14145); experiment: Keap1-Nrf2 protein-protein interaction inhibitors, dose response, biochemical, fluorescence polarization, cherry-picked samples (AID 588683)
[7] = biological target: T4, ORF 73 (Human herpesvirus 8, UniProt O40947); experiment: inhibitors of C-LANA binding to LBS DNA, dose response, biochemical, fluorescence polarization, cherry-picked samples (AID 504725); design: species or system Human gammaherpesvirus 8;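 also: fluorescence polarization of a labeled DNA duplex reporting LANA DNA binding; potency is for inhibitors that block LANA binding to the DNA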
T4 sequence (O40947 whole entry): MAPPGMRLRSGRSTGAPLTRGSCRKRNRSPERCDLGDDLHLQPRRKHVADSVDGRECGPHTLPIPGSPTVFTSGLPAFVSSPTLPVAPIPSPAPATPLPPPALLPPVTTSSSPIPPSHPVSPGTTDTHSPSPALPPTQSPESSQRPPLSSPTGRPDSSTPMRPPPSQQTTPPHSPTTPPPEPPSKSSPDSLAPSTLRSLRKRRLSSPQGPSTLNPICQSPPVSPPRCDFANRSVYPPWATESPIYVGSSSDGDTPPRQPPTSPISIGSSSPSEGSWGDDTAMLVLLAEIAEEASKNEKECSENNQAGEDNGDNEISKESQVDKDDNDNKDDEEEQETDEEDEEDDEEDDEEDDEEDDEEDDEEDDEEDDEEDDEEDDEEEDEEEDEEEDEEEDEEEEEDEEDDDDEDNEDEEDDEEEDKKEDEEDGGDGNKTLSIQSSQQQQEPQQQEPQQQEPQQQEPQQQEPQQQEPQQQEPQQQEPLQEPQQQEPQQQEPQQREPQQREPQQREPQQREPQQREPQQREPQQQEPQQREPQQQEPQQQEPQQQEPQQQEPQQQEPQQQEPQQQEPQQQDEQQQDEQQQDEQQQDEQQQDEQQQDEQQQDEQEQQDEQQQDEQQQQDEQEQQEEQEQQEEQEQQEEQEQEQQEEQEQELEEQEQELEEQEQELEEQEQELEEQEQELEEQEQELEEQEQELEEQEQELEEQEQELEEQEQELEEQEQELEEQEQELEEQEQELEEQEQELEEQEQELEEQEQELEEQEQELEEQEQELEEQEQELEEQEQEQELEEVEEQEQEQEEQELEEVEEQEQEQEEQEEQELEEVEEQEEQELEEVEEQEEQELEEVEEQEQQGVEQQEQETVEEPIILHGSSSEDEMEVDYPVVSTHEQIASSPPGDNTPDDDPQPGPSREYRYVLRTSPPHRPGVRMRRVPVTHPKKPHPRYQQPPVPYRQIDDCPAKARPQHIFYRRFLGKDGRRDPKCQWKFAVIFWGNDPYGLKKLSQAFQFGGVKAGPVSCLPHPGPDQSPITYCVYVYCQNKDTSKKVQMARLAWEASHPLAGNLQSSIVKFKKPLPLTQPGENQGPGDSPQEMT

[8] = biological target: T5, Cytochrome P450 1A2 (Homo sapiens, UniProt P05177);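 also: PubChem cytochrome P450 panel assay, CYP1A2 panel member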
T5 sequence (P05177 whole entry): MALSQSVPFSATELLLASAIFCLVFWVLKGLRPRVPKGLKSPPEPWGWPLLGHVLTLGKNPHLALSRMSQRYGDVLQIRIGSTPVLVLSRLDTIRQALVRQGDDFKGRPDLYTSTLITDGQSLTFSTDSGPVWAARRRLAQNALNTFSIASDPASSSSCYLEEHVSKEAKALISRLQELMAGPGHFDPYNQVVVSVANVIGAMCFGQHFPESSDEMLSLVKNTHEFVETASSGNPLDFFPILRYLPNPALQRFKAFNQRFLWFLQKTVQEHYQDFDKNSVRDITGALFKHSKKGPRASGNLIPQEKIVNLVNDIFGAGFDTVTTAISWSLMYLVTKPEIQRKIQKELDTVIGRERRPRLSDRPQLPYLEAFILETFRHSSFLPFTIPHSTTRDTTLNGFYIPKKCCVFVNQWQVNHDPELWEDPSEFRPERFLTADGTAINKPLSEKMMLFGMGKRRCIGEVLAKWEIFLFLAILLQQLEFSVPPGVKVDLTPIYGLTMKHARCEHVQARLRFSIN

[9] = biological target: Cytochrome P450 2D6 (Homo sapiens, UniProt P10635);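 also: CYP2D6 member of a cytochrome P450 panel assay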
[10] = biological target: UDP-galactopyranose mutase (Mycobacterium tuberculosis, UniProt P9WIQ1); experiment: Inhibitors of Mycobacterium tuberculosis UDP-galactopyranose mutase (UGM) enzyme Measured in Biochemical System Using Plate Reader - 2105-02_Inhibitor_Dose_CherryPick_Activity. [Related pubchem assays (depositor defined):AID504439]
[11] = biological target: DNA (cytosine-5)-methyltransferase 1 (Homo sapiens, UniProt P26358); experiment: DNMT1 methyltransferase inhibitors, confirmation, biochemical, fluorescent molecular beacon (AID 602386); format: functional
[12] = biological target: T6, Probable nicotinate-nucleotide adenylyltransferase (Staphylococcus aureus (strain N315), UniProt P65502); format: functional, Staphylococcus aureus subsp. aureus N315;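 as to IC50 Mean: confirmatory dose-response retesting of NadD inhibitor hits first found in an ultra-high-throughput screen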
[13] = biological target: Genome polyprotein (Hepatitis C virus, UniProt Q2Q167); experiment: HCV core protein dimerization inhibitors, dose response, biochemical, TR-FRET (AID 2159); design: species or system Hepacivirus hominis;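 also: blocks dimerization of HCV core protein measured by TR-FRET between tagged core106 pairs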
[14] = biological target: T7, Bcl-2-like protein 10 (Homo sapiens, UniProt Q9HD36); experiment: displacers of TR3 peptide from Bcl-B, primary screen, selectivity assay for Bfl-1 inhibitor project, biochemical, fluorescence polarization, FITC-TR3 peptide (AID 748);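 also: fluorescence polarization from a fluorescein-labelled TR3 peptide binding purified Bcl-B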
T7 sequence (Q9HD36 whole entry): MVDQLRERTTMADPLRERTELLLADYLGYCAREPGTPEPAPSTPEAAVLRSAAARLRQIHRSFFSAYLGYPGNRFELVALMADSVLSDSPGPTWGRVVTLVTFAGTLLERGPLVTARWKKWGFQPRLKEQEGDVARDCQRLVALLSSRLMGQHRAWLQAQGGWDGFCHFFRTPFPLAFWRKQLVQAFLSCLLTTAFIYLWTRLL

[15] = biological target: T2, Voltage-gated N-type calcium channel alpha-1B subunit/Amyloid beta A4 precursor protein-binding family A member 1; experiment: disruptors of Mint-PDZ/N-type channel peptide interaction – biochemical, HTRF, SAR follow-up (AID 2489); format: functional
[16] = biological target: T2, Voltage-gated N-type calcium channel alpha-1B subunit/Amyloid beta A4 precursor protein-binding family A member 1; experiment: disruptors of Mint-PDZ/N-type channel peptide interaction – biochemical, HTRF, set 2, SAR follow-up (AID 434980); format: functional
[17] = biological target: T8, SUMO-activating enzyme (Homo sapiens, UniProt Q9UBT2); experiment: SUMOylation inhibitor hit validation, confirmation, SUMOylation inhibitor project, biochemical, AlphaScreen (AID 2018); format: functional
[18] = biological target: Albumin (Bos taurus, UniProt P02769); experiment: Counterscreen for inhibitors of T-cell receptor (TCR)-CD3 interaction: Fluorescence-based biochemical high throughput dose response assay to identify inhibitors of T-cell receptor (TCR)-CD3 interaction using a TAMRA-labeled BSA probe.; format: functional
[19] = biological target: SUMO E1/E2 (Homo sapiens, UniProt P63279+Q9UBE0+Q9UBT2); experiment: SAR analysis of SUMOylation using HTRF in an in-Vitro dose response assay. [Related pubchem assays (depositor defined):AID2006, AID2011, AID2018, AID2069, AID2658]; format: functional
[20] = biological target: T8, SUMO-activating enzyme; experiment: inhibitors of in vitro SUMOylation cascade, primary screen, biochemical, HTRF, uHTS (AID 2006); format: protein-complex assay
[21] = biological target: T6, Probable nicotinate-nucleotide adenylyltransferase; format: functional, Staphylococcus aureus subsp. aureus N315; settings: read-out: IC50_Mean
[22] = biological target: T9, Rac GTPase-activating protein 1 (Homo sapiens, UniProt Q9H0H5); experiment: MgcRacGAP GTPase-activating activity inhibitors, confirmation, biochemical, ADP Hunter fluorescence, primary and confirmatory (AID 624330); format: functional
T9 sequence (Q9H0H5 whole entry): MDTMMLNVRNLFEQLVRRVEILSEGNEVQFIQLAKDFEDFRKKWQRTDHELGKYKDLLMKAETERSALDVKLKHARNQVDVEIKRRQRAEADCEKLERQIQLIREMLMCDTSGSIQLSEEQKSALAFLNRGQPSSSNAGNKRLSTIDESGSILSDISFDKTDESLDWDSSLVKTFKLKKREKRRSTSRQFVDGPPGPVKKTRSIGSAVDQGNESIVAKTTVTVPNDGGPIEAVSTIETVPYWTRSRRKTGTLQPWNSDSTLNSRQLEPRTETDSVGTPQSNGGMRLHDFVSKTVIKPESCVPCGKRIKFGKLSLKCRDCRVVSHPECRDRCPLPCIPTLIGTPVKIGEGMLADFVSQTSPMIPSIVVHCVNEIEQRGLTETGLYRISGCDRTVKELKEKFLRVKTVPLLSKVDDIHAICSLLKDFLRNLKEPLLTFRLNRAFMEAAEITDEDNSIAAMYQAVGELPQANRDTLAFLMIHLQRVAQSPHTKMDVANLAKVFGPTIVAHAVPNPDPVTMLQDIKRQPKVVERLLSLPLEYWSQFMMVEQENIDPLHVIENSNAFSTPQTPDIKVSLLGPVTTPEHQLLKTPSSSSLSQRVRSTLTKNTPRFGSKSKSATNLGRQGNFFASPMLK

[23] = biological target: Protein-tyrosine kinase 2-beta (Homo sapiens, UniProt Q14289);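 also: potency of inhibitors of PYK2 kinase phosphorylation of poly-GT substrate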
[24] = biological target: Protein Rev (Human immunodeficiency virus type 1 group M subtype B (isolate WMJ22)(HIV-1), UniProt P05866); experiment: HIV-1 Rev-RRE RNA binding disruptors, dose response, biochemical, protein-RNA interaction (AID 842); design: species or system Human immunodeficiency virus 1
[25] = test system: Candida albicans; experiment: growth inhibition of resistant C. albicans, dose response, CaCi-8, fluconazole, Alamar Blue, dry powder (AID 488807); format: functional, organism-based

T2 sequence (Q00975 whole entry): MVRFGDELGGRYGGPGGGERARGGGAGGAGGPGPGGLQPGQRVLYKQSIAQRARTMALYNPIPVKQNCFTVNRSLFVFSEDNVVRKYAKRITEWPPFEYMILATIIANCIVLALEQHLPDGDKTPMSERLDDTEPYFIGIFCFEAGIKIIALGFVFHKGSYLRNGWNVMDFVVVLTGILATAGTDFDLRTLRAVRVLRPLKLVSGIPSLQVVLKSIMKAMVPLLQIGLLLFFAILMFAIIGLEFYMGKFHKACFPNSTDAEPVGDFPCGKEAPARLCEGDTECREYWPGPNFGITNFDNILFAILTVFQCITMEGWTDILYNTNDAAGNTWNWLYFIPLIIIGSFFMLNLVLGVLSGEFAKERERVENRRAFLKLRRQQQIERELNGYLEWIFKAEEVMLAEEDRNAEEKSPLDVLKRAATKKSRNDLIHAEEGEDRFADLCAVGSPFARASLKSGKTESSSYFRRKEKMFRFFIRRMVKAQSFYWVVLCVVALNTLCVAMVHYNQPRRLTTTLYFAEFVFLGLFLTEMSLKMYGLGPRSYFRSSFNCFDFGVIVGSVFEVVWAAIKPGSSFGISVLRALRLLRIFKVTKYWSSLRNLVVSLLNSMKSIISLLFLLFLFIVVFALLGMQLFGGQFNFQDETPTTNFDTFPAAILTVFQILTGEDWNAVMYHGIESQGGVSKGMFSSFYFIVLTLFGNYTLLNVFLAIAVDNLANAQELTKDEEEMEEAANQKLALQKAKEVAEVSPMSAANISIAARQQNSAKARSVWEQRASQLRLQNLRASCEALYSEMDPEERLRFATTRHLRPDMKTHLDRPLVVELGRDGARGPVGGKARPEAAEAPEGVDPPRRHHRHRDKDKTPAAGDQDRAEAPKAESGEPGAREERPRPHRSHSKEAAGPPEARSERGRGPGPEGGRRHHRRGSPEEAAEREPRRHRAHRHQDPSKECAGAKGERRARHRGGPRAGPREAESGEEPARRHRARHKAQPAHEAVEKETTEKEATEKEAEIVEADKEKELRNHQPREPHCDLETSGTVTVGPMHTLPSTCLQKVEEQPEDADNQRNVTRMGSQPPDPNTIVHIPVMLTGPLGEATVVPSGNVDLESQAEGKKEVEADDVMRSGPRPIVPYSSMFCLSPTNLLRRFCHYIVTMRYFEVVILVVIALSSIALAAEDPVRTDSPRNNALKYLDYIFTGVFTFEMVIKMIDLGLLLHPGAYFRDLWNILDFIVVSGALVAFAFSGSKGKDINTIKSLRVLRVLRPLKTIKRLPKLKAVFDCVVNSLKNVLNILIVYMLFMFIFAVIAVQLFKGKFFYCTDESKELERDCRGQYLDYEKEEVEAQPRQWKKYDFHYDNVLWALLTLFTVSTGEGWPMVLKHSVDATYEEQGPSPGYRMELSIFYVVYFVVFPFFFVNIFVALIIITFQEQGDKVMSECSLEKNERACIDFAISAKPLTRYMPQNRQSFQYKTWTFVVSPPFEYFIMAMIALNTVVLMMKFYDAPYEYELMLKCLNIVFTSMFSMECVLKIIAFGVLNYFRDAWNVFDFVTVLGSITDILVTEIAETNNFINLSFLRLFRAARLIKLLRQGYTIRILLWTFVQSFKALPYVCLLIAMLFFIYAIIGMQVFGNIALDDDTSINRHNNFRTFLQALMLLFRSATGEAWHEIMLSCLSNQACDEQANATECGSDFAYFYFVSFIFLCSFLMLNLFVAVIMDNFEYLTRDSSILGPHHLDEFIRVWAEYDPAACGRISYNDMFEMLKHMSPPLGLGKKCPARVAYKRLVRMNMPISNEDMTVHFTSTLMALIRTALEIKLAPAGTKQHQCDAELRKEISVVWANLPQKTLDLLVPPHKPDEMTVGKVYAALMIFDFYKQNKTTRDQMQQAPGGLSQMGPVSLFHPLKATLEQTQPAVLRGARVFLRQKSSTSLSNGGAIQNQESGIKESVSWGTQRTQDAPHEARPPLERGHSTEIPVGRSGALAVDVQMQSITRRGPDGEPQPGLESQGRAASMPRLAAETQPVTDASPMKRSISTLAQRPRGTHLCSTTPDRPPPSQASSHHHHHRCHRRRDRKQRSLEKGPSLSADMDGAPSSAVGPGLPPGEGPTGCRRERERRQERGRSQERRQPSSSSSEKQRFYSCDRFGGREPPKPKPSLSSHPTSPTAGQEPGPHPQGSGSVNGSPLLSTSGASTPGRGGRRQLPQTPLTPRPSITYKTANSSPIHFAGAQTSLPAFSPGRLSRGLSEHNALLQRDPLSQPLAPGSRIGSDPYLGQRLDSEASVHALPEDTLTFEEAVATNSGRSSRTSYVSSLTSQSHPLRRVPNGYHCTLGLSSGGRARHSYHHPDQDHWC
T2 sequence (Q02410 whole entry): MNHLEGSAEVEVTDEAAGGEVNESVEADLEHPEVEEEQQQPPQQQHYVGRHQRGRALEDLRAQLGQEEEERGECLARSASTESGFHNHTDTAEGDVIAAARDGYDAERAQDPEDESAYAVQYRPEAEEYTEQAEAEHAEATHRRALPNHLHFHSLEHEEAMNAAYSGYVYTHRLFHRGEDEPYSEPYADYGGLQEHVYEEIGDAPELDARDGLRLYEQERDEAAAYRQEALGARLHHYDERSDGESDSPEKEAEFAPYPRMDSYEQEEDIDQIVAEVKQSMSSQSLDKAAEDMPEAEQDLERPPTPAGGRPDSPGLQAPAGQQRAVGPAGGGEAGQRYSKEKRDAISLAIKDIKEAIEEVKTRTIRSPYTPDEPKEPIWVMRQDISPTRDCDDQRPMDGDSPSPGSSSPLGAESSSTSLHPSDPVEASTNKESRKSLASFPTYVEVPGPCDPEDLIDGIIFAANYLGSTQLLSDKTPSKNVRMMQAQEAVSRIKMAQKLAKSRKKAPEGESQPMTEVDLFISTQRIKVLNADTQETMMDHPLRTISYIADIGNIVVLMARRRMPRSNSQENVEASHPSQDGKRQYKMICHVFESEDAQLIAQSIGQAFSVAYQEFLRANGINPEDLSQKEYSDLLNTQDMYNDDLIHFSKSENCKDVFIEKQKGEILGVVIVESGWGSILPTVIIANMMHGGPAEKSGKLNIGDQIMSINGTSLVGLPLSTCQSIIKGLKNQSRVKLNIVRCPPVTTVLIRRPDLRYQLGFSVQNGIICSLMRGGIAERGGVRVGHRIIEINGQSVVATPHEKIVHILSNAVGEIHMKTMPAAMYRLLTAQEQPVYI
T3 sequence (P63165 whole entry): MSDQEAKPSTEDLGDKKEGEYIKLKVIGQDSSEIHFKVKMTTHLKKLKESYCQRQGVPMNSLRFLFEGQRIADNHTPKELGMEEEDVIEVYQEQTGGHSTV
T6 sequence (P65502 whole entry): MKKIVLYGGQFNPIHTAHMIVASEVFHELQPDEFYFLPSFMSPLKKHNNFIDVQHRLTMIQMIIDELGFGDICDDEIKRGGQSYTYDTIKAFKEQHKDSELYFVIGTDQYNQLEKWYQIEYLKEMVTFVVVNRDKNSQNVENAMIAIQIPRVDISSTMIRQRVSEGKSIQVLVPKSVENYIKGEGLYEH
SUMO E1/E2, sequence (Q9UBE0 whole entry): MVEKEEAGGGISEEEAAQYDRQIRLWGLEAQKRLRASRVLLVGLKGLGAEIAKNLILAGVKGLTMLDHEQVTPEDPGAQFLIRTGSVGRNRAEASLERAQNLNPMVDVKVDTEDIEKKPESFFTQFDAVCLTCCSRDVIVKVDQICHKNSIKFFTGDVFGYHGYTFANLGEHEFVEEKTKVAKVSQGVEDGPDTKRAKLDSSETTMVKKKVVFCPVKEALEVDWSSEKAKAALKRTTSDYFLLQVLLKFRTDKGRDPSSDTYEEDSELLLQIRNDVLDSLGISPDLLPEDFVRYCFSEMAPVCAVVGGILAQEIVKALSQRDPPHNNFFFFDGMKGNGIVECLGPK
SUMO E1/E2, sequence (Q9UBT2 whole entry): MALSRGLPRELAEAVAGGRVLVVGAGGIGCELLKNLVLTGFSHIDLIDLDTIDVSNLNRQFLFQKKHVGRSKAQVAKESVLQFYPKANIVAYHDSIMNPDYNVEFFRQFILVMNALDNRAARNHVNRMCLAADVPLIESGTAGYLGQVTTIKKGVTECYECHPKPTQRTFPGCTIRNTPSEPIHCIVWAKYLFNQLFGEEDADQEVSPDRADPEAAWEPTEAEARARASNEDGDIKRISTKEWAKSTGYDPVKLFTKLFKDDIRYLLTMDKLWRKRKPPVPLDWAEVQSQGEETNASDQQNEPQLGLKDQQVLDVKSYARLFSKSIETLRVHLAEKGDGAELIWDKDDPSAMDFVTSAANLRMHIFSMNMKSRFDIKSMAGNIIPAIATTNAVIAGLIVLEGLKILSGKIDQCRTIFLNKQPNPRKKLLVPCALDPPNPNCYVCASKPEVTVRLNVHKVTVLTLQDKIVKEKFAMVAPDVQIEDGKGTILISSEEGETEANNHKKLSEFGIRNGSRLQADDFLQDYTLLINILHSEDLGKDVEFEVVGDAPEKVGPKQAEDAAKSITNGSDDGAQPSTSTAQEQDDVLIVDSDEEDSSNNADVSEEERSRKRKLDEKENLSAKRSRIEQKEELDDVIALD
SUMO E1/E2, sequence (P63279 whole entry): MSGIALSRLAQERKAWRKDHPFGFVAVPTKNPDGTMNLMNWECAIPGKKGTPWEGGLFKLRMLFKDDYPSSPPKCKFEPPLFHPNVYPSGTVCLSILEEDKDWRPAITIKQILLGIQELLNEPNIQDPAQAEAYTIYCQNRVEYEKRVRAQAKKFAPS
T8 sequence (Q9UBE0 whole entry): as the sequence (Q9UBE0 whole entry) above
T8 sequence (Q9UBT2 whole entry): as the sequence (Q9UBT2 whole entry) above
Genome polyprotein, sequence (Q2Q167 whole entry): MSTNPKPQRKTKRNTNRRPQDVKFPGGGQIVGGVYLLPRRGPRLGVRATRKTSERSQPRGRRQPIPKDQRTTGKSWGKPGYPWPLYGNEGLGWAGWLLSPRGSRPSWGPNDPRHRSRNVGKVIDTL
Protein Rev, sequence (P05866 whole entry): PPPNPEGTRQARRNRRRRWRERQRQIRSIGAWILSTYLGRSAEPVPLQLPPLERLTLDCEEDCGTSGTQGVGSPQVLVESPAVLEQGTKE

N#Cc1nc(-c2ccc(OCc3ccc(Cl)cc3)cc2)oc1N1CCC(C(N)=O)CC1
EC50 [1]: 7.04 µM (active) | IC50 [2]: 47.3 µM (active) | IC50 [3]: 3.78 µM (active) | IC50 [4]: 8.79 µM (active) | IC50 [5]: > 66.6 µM (inactive)

Fc1ccc(C2=CC(c3ccc(Br)o3)n3ncnc3N2)cc1 (configuration not stated)
AC50 [6]: 24 µM (active) | AC50 [7]: 10.8 µM (active)

Cn1c(=O)c2nc(SCc3ccccn3)[nH]c2n(C)c1=S
AC50 [8]: 12.6 nM (inconclusive) | AC50 [9]: inconclusive

CC(C)(C)c1cc[n+](-c2[n-]c(=O)sc2C=NN=C(S)Nc2ccccc2)cc1
AC50 [10]: 65.5 µM (active)

O=C(N/N=C/c1ccc(F)cc1)c1cc(-c2ccco2)nc2ccccc12
IC50 [11]: 5.57 µM (active) | IC50 [12]: 10.8 µM (active) | IC50 [13]: > 49.8 µM (not active) | IC50 [14]: 2.97 µM (active) | IC50 [2]: 6.44 µM (active) | IC50 [15]: 14.6 µM (active) | IC50 [3]: 8.83 µM (active) | IC50 [16]: 5.57 µM (active) | IC50 [17]: 2.28 µM (active) | IC50 [18]: > 94.1 µM (inactive) | IC50 [19]: 4.33 µM (active) and 8.06 µM (active) | IC50 [20]: 10.6 µM (active) | IC50 [21]: 27.1 µM (active) | IC50 [22]: 108 µM (active) | IC50 [23]: 2.01 µM (active) | IC50 [24]: > 79.4 µM (not active)

COC(=O)Cn1nc(-c2ccc(Cl)cc2)c2ccccc21
AC50 [25]: 2.16 µM (active)
